According to patent US11839873B2, “Valveless fluidic switching flowchip and uses thereof” (Protein Fluidics, Inc., priority 2018, dated 2023):
Residues, ends and D or L forms follow the SMILES beside them. *: point of attachment. Cbz = O=C(OCc1ccccc1)*

Key:
[1] = tested on: HUVECs stimulated with an inflammatory cytokine mixture of TNF-α, IL-1β, and IFN-γ (IL-8, IL-6, MCP-1 upregulation); assay: Multiparametric HUVEC inflammation assay, secreted cytokines quantified by microfluidic flowchip ELISA; format: cell-based, human; details: for HUVEC inflammation response as shown by upregulation of IL-8, IL-6, and MCP-1: HUVECs stimulated with TNF-α, IL-1β, IFN-γ mixture for 20 hours at 37° C., concentration dependent effect of compound; for IL-8 expression: HUVECs, compounds added 1 hour prior to inflammatory cytokine mixture, 20 hours at 37° C.
Text: We present results from a multiparametric primary human cell-based assay that uses immunoassays for secreted cytokines to evaluate the effect of different mediators on inflammatory response. Expression of the inflammation markers from primary human umbilical vein endothelial cells (HUVEC) stimulated with inflammation cytokines (TNF-α, IFN-γ, and IL-1β) was quantified by microfluidic-based ELISAs.
The Capture and Primary antibodies are specific to each immunoassay and matched antibody pairs for the MCP-1, IL-8, and IL-6 assays were obtained from a commercial source (Biolegend, San Diego, CA). The buffers and Stop Solution are common to all three assays and were made using materials obtained from Sigma-Aldrich. The SA-HRP (Becton Dickenson, San Diego, CA) and Substrate (Abcam, Cambridge, MA) were also common to each assay. The Capture Ab's were used at a concentration of 10 μg/ml and made by diluting stock Ab in a Coating Buffer solution containing phosphate buffered saline (PBS). The Primary Ab's were used at a concentration of 1 μg/ml and made by diluting stock Ab in an Assay Buffer solution containing PBS, bovine serum albumin (BSA), and Tween20. The Blocking Buffer consisted of BSA diluted in PBS. The SA-HRP was also diluted in Assay Buffer and used at a concentration of 200 ng/ml. The Substrate solution was used as provided.

[2] = tested on: THP-1 cells stimulated with PMA and LPS (IL-8, IL-1β, TNFα secretion); assay: THP-1 cell cytokine secretion assay, microfluidic flowchip ELISA; format: cell-based, human; details: for THP-1 cellular inflammation response as shown by upregulation of IL-8: THP-1 cells stimulated with PMA and LPS for 20 hours at 37° C., concentration dependent effect of compound; for cytokine expression: THP-1 cells treated with compound prior to PMA and LPS activation, cytokine secretion quantified
Experimental: THP-1 cells were stimulated with PMA and LPS for 48 hours. […] To evaluate anti-inflammatory compounds, cells were treated with the kinase inhibitors SB202190 and PDTC, and the antibiotic moxifloxacin prior to activation. Then, inhibition of the inflammation responses by those anti-inflammatory compounds was measured by quantifying cytokine secretion.
A microfluidic flowchip was designed containing multiple reservoirs and nodes that accommodate the reagents required to perform an ELISA assay. The assay channel (from Well 3 to Well 9) has a cross-section of 50 μm by 300 μm and length of 25 mm while the other transfer channels have cross-sections of 50 μm by 50 μm. […] The flowchip was made out of COC using injection molding and the bottom surface was sealed with a COC film. Each reservoir has a capacity of ˜30 μl and was filled with 20 μl of the appropriate assay reagent. Assays were performed using a single protocol for all reagents as shown in FIG. 22 carried out in the following order: Capture Antibody (W3), Blocking Buffer (W2), Sample (W1), Primary Antibody (W4), Avidin-HRP (W5), Wash Buffer (Wash), Substrate (W7), and Stop Solution (W6).
The Capture and Primary antibodies are specific to each immunoassay and matched antibody pairs for the IL-8, IL-β, and TNFα assays were obtained from a commercial source (Biolegend, San Diego, CA). The buffers and Stop Solution are common to all three assays and were made using materials obtained from Sigma-Aldrich. The Avidin-HRP (Biolegend, San Diego, CA) and Substrate (Abcam, Cambridge, MA) were also common to each assay. The Capture Ab's were used at a concentration of 10 μg/ml and made by diluting stock Ab in a Coating Buffer solution containing phosphate buffered saline (PBS). The Primary Ab's were used at a concentration of 1 μg/ml and made by diluting stock Ab in an Assay Buffer solution containing PBS, bovine serum albumin (BSA), and Tween20. The Blocking Buffer consisted of BSA diluted in PBS. The Avidin-HRP was also diluted in Assay Buffer and used at a concentration of 200 ng/ml. The Substrate solution was used as provided.
Each fluid transfer step, from a source well to a destination well, followed a fluid transfer rule that included a HP portion to move the majority of fluid through a given channel followed by a longer LP portion to empty the source well without emptying the channel as described previously. The HP portion typically was between 5 and 20 sec while the LP portion typically was between 30 and 300 sec. Incubation in the assay channel was done using a different fluid transfer rule that included successive short HP transfers followed by a delay between transfers to allow interaction of the reagents with the assay channel walls. […]

SMILES	HUVEC inflammation response as shown by upregulation of IL-8, IL-6, and MCP-1 [1]	IL-8 expression [1]	THP-1 cellular inflammation response as shown by upregulation of IL-8 [2]	cytokine expression [2]
N#CC(C#N)=Cc1ccc([N+](=O)[O-])c(O)c1 [AG-126]	clearly diminished	reduced at similar concentrations	–	–
CC(C)C[C@@H](C=O)NC(=O)[C@H](CC(C)C)NC(=O)[C@H](CC(C)C)NC(=O)OCc1ccccc1 [MG-132] (Cbz-Leu-Leu-Leu-aldehyde)	clearly diminished	not affected within the concentration range studied	–	–
S=C(S)N1CCCC1 [PDTC]	–	–	clearly diminished	Concentration-dependent decreases
Oc1ccc(-c2nc(-c3ccncc3)c(-c3ccc(F)cc3)[nH]2)cc1 [SB202190]	clearly diminished	reduced at similar concentrations	clearly diminished	Concentration-dependent decreases
